Consider one compound from patent publication US20210187014A1 (The Regents of the University of Colorado, a body corporate, priority 2018, published 2021).

Data set [1] deals with mitochondria from HEK293T cells. Kind of data set: In vitro mitochondrial iron uptake assay, mitochondria from HEK293T cells. The data set is classed as biochemical, human. From the text:
Moreover, using siRNA knockdown (FIG. 13A), the present inventors observed that this Ent-mediated increase depended on ATP5A1 (FIG. 6E, F) in a similar manner as that in the assays for C. elegans (FIG. 5A, D). The present inventors also measured the mitochondrial iron level in cells by using the fluorescent mitochondrial iron indicator, RPA, to which iron binding quenches its fluorescence. […] The relatively smaller changes seen for cultured cells, compared to the difference in worms fed heat-killed food (FIG. 2), may potentially be due to the higher base iron level under the cell culturing condition.
(§1) Mitochondrial iron uptake assays. For the in vitro mitochondrial iron uptake assay, the present inventors modified a published procedure for analysis of mammalian cells (Devireddy et al., 2010). […] The samples were incubated for 4 hours at room temperature, and the amount of 55Fe in lysed mitochondria was determined by liquid scintillation.

The test system of another data set is HEK293T cells. Kind of data set: In vivo mitochondrial iron uptake assay in HEK293T cells. The data set is classed as cell-based, human.
The subject of a further data set is mice. Kind of data set: Growth of mice fed control (iron-adequate) diet, Ent in drinking water. The data set is classed as in vivo. As to conditions: male mice, drinking water pH 5.5. From the text:
The present inventors treated 4.5-week male mice with the iron-adequate control diet (CD) described above, the matched control for the iron-deficient diet (IDD). As shown above in FIGS. 20 and 21, mice fed this diet had relative normal hemoglobin and iron levels. […] This experiment was incomplete because the hemoglobin and iron levels were not measured, which will be repeated.

The subject of data set [2] is C. elegans. Kind of data set: C. elegans larval growth assay: heat-killed E. coli plus trace live E. coli, worm volume. The settings on record: for worm growth with dietary supplementation: worms fed heat-killed E. coli plus live entA- or entF- mutant E. coli (Ent-deficient food). The data set is classed as in vivo. The source says: In one embodiment of the inventive technology, the present inventors created a unique assay to facilitate the identification of microbial metabolites that benefit growth and development of host animals. […] This unique feeding condition was used to search for E. coli mutants that fail to support normal worm growth, potentially due to their inability to provide specific metabolites to benefit host animals.
E. coli Keio collection screen. Preparation of heat-killed (HK) OP50 plates followed the procedure described previously (Qi et al., 2017). Standard overnight culture of E. coli OP50 grown in LB broth was concentrated to 1/10 vol and was then heat-killed in a 75° C. water bath for 90 min. The 150 µl of the HK-OP50 was spread onto one side of NGM plate. For preparation of bacterial mutant assay plates, E. coli Keio (Baba et al., 2006) mutants were grown overnight at 37° C. in LB medium with […] kanamycin. 0.2 uL of the bacterial culture (OD600) were seeded to the other side of HK OP50 plate. About 300 synchronized L1 worms were added to the screen plate, and cultured at 20° C., then scored for worm size at day 3 and day 4. The entire library was used for the primary screen; each bacterial mutant was screened once. For the secondary screen, 200 candidate mutants were screened (3 replicates) to confirm the slow growth phenotype.
Chemical supplementation of culture plates. For chemical supplementation, each chemical was dissolved in water or DMSO to generate a stock. The stock solution was added to HK OP50 and then spotted onto NGM plates. […] For CaEDTA supplementation (Kiang et al., 2014), 50 ul of CaEDTA (50 ug/ul) was spread onto the center of the NGM plates seeded with OP50, then different volume of the FeCl3[175 ug/ul] […] Bacterial growth analyses. Overnight cultures were diluted to a final OD600=0.01 in 200 μL of NGM liquid medium. Bacteria were grown in 96-well plates with shaking in a Synergy2 plate reader (BioTek) at 37° C. for 17 h. The OD600 was recorded at 20 min intervals.
Analysis of larval growth by measuring worm size. Synchronized L1 worms were seeded on the indicated NGM plate and grew to the indicated times. Photos were taken and worms volume in each photo were measured by WormSizer software (Moore et al., 2013).

Data set [3] concerns anemic mouse model (dietary anemia). Description: Anemic mouse model (dietary anemia), Ent in drinking water. In kind it is in vivo. The settings on record: male mice on iron-deficient diet, two weeks. How it is done:
The inventors fed 3-week old male mice an iron-deficient diet (IDD) (or control diet) for 5 weeks to induce anemia. They were then fed IDD +/− Ent added to the drinking water for two more weeks. Fresh dilutions of Ent in water were provided once per week. As generally shown in FIG. 21, mice continuously fed the iron-adequate control diet (CD) were included as the control. Hemoglobin level was measured by a Hemavet Blood Analyzer. Mean value±SD is shown.

A further data set has as its system MEL cells. Kind of data set: Erythroid differentiation of MEL cells (color change of cell pellets). In kind it is cell-based, murine. The settings on record: equimolar supplementation. How it is done:
FIG. 27. Ferric Enterobactin supplementation benefits differentiation of erythroid progenitor cells (MEL) to red blood cells. (FIG. 27A) MEL cells were grown with the indicated treatments. Cell pellets are shown. (FIG. 27B) Quantification of MEL color change presented as the average intensity of each cell pellet, normalized to the intensity of the control. Error bars are the standard deviation of three technical replicates.
MEL cells are murine erythroid progenitor cells that are arrested at the proerythroblast stage. In the laboratory, these cells are induced to undergo erythroid differentiation to red blood cells by addition of various chemicals (e.g. 2% DMSO) (Friend, 1971). Erythroid differentiation is an iron-dependent process that results in a color change in the differentiated cells. The present inventors tested if addition of Fe-Ent would positively impact the differentiation of wild-type MEL cells to red blood cells.

The subject of another data set is HEK293 cells. Description: Cellular iron level by Calcein AM fluorescence in HEK293 cells +/- iron chelator DFO. The data set is classed as cell-based, human. How it is done: Here, a similar test was done in human HEK293 cells. […] The present inventors then created a low-iron condition by adding an iron chelator, Deferoxamine (DFO) to the medium (FIG. 18A). […] The assay was also performed using mouse intestinal epithelial (MODE-K) cells.

In data set [4] the test system is C. elegans. Description: Iron level in live worms by calcein-AM staining (and pftn-2::GFP reporter). The data set is classed as in vivo.
Description: The present inventors employed the commonly used fluorescent cell-permeable dye, calcein AM, of which emission is quenched by iron binding, and applied it to live worms as previously described to estimate the overall iron level in the host.
Live imaging of iron in worms was done as previously described (James et al., 2015). Briefly, worms were collected at different culture conditions, then co-cultured in M9 with 0.05 ug/ML calcein-AM (Invitrogen) for 1 h, then washed 3 times in 1 ml M9. Samples were then mounted for fluorescence microscopy.
For calcein-AM staining, the original images taken with GFP channel were used to measure the intensity. The value of staining intensity was determined by subtracting the background intensity from the calcein-AM stained intestine.
In the next data set the test system is mitochondria. Kind of data set: In vitro mitochondrial iron uptake assay, mitochondria purified from worms (55Fe). In kind it is biochemical, C. elegans. The settings on record: purified mitochondria incubated with 55FeCl3 +/- Ent. How it is done:
as §1

Data set [5] is described as follows: Ent stability by CAS liquid assay. The data set is classed as physicochemical. From the text: FIG. 25. […] Degradation is indicated by increased absorbance. […] Degradation is indicated by increased relative fluorescence. […] For all tests, dilutions were kept at room temp and exposed to light. Error is standard deviation of the mean.

Structures are written as SMILES. Entries after “also recorded” stand apart in the source; their conditions may differ.

Turning to `O=C(N[C@H]1COC(=O)[C@@H](NC(=O)c2cccc(O)c2O)COC(=O)[C@@H](NC(=O)c2cccc(O)c2O)COC1=O)c1cccc(O)c1O` [Ent, enterobactin], the “iron level in mitochondria” value (in data set [1]; in the data set on HEK293T cells) was “prominently increased” throughout. In addition, the “growth rate (weight gain)” value in the data set with mice is given as “increased growth rate”. Also, the “rescue of worm growth by Ent supplementation” value in the data set with C. elegans [2] (RNAi of atp-1 (not ctl-2)) is listed as “prevented the rescue of worm growth”. Also, the worm growth result in the data set on C. elegans [2] (ferric chloride added to live wild-type E. coli, with heat-killed E. coli) was “this growth defect was suppressed”. The “worm growth with dietary supplementation” value in the data set with C. elegans [2] is “completely overcome”; in the data set on C. elegans [2] (listed as Enterobactin), “recovers the growth defect seen with entF-”. Also, the development of worms result in the data set with C. elegans [2] (worms fed only heat-killed bacteria) is recorded as “did not result in any appreciable effect”. For the same compound, the hemoglobin level result in [3] was “significantly improved”. The “MEL differentiation to red blood cells” value with MEL cells was “decrease in differentiation”. In the data set on HEK293 cells (medium with DFO, Ent 1.5 uM), the “decrease in Calcein AM fluorescence with Ent addition” value is on record as 45%. For the same compound, in the data set with HEK293 cells (medium with DFO, Ent 1.5 uM), the iron level recovery entry was “mostly recovered; also recorded: largely recovered”. Further, in the data set on HEK293 cells (standard culture medium), the “increase of cellular iron uptake” value is recorded as roughly 33%. The “iron level gain with Ent supplementation” value with C. elegans [4] (atp-1 RNAi, entF- mutant bacteria) was “eliminated the iron level gain”. Also, the “iron level in worms (calcein AM and pftn-2::GFP)” value in the data set on C. elegans [4] (growth-arrested worms fed heat-killed E. coli only) was “such a defect was suppressed”. The “iron level and growth rate defects” value in the data set on C. elegans [4] (iron-deficient condition, worms treated with CaEDTA) is “both defects were suppressed”. The “iron level in worms (calcein AM fluorescence)” value in the data set on C. elegans [4] (worms fed entA- or entF- mutant bacteria with heat-killed E. coli) is “recovered”. The “amount of FeCl3 (175 ug/ul) with equivalent effect on calcein-AM fluorescence decrease” value in the data set with C. elegans [4] (worms treated with CaEDTA) is 10 µL. The “iron level increase attributed to Ent-mediated iron uptake” value in the data set with C. elegans [4] (worms treated with CaEDTA) was no less than 10 fold. In addition, the “increase in 55Fe level in mitochondria” value with mitochondria came to 10 fold. Besides, in data set [5] (100% DMSO, room temp, light), the stability entry is “little change during the assay period”. For the same compound, in [5] (H2O pH 6.5/7), the “stability in H2O at varying pH” value is “more stable than the other dilutions in acidic and basic H2O”. For the same compound, in data set [5] (H20 (pH 5.5) with 10% DMSO, room temp, light), the “time of rapid degradation” value was no more than 60 min. Moreover, in data set [5] (pH 5.5), the “stability in deionized water” value was “highly unstable”.
